# According to patent publication US20210323977A1, “PYRROLIDINYL AMIDE COMPOUNDS FOR THE TREATMENT OF AUTOIMMUNE DISEASE” (Hoffmann-La Roche Inc., priority 2018, published 2021):
# Target: T1, human TLR8 (Homo sapiens, UniProt Q9NR97)
# T1 sequence (Q9NR97 27-1041): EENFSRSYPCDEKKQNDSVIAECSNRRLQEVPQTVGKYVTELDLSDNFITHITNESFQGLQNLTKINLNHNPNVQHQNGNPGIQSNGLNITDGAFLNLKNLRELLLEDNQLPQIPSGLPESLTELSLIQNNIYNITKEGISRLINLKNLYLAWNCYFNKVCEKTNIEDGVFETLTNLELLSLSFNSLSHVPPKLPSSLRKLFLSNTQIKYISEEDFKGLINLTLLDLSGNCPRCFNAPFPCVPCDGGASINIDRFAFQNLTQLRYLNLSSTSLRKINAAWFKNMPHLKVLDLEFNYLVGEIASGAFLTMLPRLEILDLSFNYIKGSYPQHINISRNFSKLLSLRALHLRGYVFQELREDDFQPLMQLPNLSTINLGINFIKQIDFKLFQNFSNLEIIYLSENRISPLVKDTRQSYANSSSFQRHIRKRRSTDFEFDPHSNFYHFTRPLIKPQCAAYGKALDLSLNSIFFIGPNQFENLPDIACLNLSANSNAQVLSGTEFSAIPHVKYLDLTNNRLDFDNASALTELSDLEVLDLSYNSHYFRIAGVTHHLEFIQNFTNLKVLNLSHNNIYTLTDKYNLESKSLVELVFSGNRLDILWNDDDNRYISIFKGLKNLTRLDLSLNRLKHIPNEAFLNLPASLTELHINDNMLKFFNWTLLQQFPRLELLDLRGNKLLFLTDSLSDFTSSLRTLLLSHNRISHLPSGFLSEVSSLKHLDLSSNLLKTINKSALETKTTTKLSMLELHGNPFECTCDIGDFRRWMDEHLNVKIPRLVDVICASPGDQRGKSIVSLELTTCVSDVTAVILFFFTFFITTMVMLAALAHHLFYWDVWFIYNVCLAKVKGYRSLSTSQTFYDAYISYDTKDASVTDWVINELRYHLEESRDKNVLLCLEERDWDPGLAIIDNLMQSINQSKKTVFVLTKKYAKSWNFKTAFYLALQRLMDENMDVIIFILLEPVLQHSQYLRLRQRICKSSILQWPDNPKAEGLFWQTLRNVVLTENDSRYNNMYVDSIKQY
# Assay: HEK293-Blue-hTLR-8 cells assay
# Assay type: cell-based
# Conditions: HEK293-Blue-hTLR8 cells, SEAP reporter, R848 stimulation, 20 hrs
# Description: HEK293-Blue-hTLR-8 Cells Assay:
# A stable HEK293-Blue-hTLR-8 cell line was purchased from InvivoGen (Cat. #: hkb-htlr8, San Diego, Calif., USA). These cells were originally designed for studying the stimulation of human TLR8 by monitoring the activation of NF-κB. A SEAP (secreted embryonic alkaline phosphatase) reporter gene was placed under the control of the IFN-β minimal promoter fused to five NF-κB and AP-1-binding sites. The SEAP was induced by activating NF-κB and AP-1 via stimulating HEK-Blue hTLR8 cells with TLR8 ligands. Therefore the reporter expression was declined by TLR8 antagonist under the stimulation of a ligand, such as R848, for incubation of 20 hrs. The cell culture supernatant SEAP reporter activity was determined using QUANTI-Blue™ kit (Cat. #: rep-qb1, Invivogen, San Diego, Ca, USA) at a wavelength of 640 nm, a detection medium that turns purple or blue in the presence of alkaline phosphatase.
# HEK293-Blue-hTLR8 cells were incubated at a density of 250,000-450,000 cells/mL in a volume of 170 μL in a 96-well plate in Dulbecco's Modified Eagle's medium (DMEM) containing 4.5 g/L glucose, 50 U/mL penicillin, […], […], 2 mM L-glutamine, 10% (v/v) heat-inactivated fetal bovine serum with addition of 20 μL test compound in a serial dilution in the presence of final DMSO at 1% and 10 sL of 60 uM R848 in above DMEM, perform incubation under 37° C. in a CO2 incubator for 20 hrs. Then 20 μL of the supernatant from each well was incubated with 180 sL Quanti-blue substrate solution at 37° C. for 2 hrs and the absorbance was read at 620˜655 nm using a spectrophotometer. The signalling pathway that TLR8 activation leads to downstream NF-κB activation has been widely accepted, and therefore similar reporter assay was modified for evaluating TLR8 antagonist.
row,Compound,IC50 [nM]
1,"N#Cc1ccc(N2C[C@@H](C(F)(F)F)[C@H](C(=O)N[C@H]3CNC[C@H]3F)C2)c2cccnc12 [Example 47, Trans-1-(8-cyano-5-quinolyl)-N-[(3S,4R)-4-fluoropyrrolidin-3-yl]-4-(trifluoromethyl)pyrrolidine-3-carboxamide]",404
2,"C[C@H]1CN(c2ccc(Cl)c3ncccc23)C[C@@H]1C(=O)NC1CCN(C)CC1 [Example 50, (3R,4R)-1-(8-chloro-5-quinolyl)-4-methyl-N-(1-methyl-4-piperidyl)pyrrolidine-3-carboxamide]",147
3,"CN1CCCC(CNC(=O)C2CN(c3ccc(C#N)c4ncccc34)CC23CC3)C1 (centres unmarked) [Example 51, 5-(8-Cyano-5-quinolyl)-N-[(1-methyl-3-piperidyl)methyl]-5-azaspiro[2.4]heptane-7-carboxamide]",398
4,"C[C@@H]1CN(c2ccc(C#N)c3ncccc23)C[C@H]1C(=O)N[C@H]1CNC[C@H]1F [Example 56, Trans-1-(8-cyano-5-quinolyl)-N-[(3S,4R)-4-fluoropyrrolidin-3-yl]-4-methyl-pyrrolidine-3-carboxamide]",373
5,"C[C@H]1CN(c2ccc(C#N)c3nccnc23)C[C@@H]1C(=O)NC1CCN(C2CCNCC2)CC1 [Example 60, (3R,4R)-1-(8-cyanoquinoxalin-5-yl)-4-methyl-N-[1-(4-piperidyl)-4-piperidyl]pyrrolidine-3-carboxamide]",48
